IC50 data for 48 compounds are collected here from patent US20260035382A1, “COMPOUNDS AS SUMO ACTIVATING ENZYME INHIBITORS” (WIGEN BIOMEDICINE TECHNOLOGY (SHANGHAI) CO., LTD., priority 2022, published 2026).

The test deals with SAE (Homo sapiens (Human), UniProt Q9UBT2). Put plainly: In vitro inhibitory activity assay against SAE (SUMO-2/3 immunofluorescence in HCT116 cells). The test is classed as cell-based. The note with it: 6 h incubation, read-out: SUMO IF IC50. On the procedure: HCT116 cells were seeded into a 96-well black transparent bottom plate at about 20000/well with 90 μL per well. The cells were incubated at 37° C. overnight for 24 h. The test compounds were 10-fold diluted to give a final concentration, and 10 μL of the diluted compounds was added to each well of the cell culture plate. The mixture was incubated at 37° C. for 6 h. The cells were then washed gently, the culture medium was discarded, and the cells were washed once with 200 μL of 0.1% o PBST. 50 μL of 4% PFA was added to each well, and the cells were immobilized at room temperature for 20 min, and then washed with PBS 2-3 times. 50 μL of 0.2% o Triton X-100 was added to each well, and the cells were left to stand at room temperature for 15 min and washed with 0.1% PBST 3 times. 100 uL of 3% BSA (0.6 g BSA+20 mL PBS) was added to each well, and the mixture was blocked at 37° C. for 30 min. After the blocking was completed, the liquid was removed and a primary antibody (SUMO-2/3 (181H8) Rabbit mAb, 1:400 dilution) was prepared with […]. 30 μL of the diluted primary antibody was added to each well, and the mixture was incubated at 4° C. overnight. The cells were washed 3 times with 200 μL of 0.1% o PBST. A FITC secondary antibody (Fluorescein (FITC)-conjugated Affinipure Goat Anti-Rabbit IgG (H+L), 1:300 dilution) was further prepared with 1% o BSA, and 40 μL of the diluted secondary antibody was added to each well. The mixture was incubated at room temperature in the dark for 2 h, and then the cells were washed 4 times with 0.1% PBST. The fluorescence signal of the sample was detected and compared to the DMSO group, and the inhibition rate and IC50 were calculated.
Sequence of SAE (Q9UBT2 whole entry): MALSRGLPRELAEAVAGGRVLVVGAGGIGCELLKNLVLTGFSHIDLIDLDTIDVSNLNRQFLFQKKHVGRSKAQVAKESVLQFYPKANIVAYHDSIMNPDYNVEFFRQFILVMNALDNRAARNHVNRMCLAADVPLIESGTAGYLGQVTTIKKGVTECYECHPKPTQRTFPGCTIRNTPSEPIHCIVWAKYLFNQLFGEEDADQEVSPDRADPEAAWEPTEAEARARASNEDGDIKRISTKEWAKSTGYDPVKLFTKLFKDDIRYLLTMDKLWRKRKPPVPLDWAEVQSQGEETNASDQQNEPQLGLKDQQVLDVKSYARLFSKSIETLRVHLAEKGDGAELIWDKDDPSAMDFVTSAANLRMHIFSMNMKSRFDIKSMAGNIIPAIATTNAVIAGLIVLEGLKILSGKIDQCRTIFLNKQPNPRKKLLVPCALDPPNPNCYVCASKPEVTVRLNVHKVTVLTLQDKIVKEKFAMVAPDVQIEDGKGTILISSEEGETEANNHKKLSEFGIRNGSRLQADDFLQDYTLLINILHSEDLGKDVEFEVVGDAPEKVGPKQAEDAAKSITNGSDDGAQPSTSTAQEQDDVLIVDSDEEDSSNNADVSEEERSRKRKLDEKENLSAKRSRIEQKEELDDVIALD
Sequence of SAE (Q9UBE0 whole entry partner): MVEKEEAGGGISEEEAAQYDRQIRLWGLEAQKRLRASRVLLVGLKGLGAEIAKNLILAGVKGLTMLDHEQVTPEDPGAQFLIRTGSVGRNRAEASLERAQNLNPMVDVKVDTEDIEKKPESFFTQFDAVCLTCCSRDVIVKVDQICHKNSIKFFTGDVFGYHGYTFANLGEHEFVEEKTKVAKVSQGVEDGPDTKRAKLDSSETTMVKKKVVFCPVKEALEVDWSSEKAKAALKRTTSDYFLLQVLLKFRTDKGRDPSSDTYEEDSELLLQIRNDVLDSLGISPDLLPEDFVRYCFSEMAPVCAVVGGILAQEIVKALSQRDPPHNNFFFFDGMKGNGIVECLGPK

Where two headings read alike, the source gives them in different places.

Broadly, the IC50 is the concentration needed to halve the response being measured. In the case of `NS(=O)(=O)OC[C@H]1C[C@@H](Nc2ncncc2C(=O)c2cc3c(s2)CCCC32NCCc3ccccc32)C[C@@H]1O` (stereo partly drawn) [Compound 1], the IC50 (class symbols) was 0.05 to 0.2 µM.

Regarding `NS(=O)(=O)OC[C@H]1C[C@@H](Nc2ncncc2C(=O)c2cc3c(s2)CCC[C@@]32NCCc3ccccc32)C[C@@H]1O` [Compound 2], the IC50 (class symbols) is above 0.2 µM.

Regarding `NS(=O)(=O)OC[C@H]1C[C@@H](Nc2ncncc2C(=O)c2cc3c(s2)CCC[C@]32NCCc3ccccc32)C[C@@H]1O` [Compound 3], the IC50 (class symbols) was at most 0.05 µM.

In the case of `NS(=O)(=O)OC[C@H]1C[C@@H](Nc2ncncc2C(=O)c2cc3c(s2)CCCC32NCCc3ccc(Cl)cc32)C[C@@H]1O` (stereo partly drawn) [Compound 4], the IC50 (class symbols) was at most 0.05 µM.

For the compound `NS(=O)(=O)OC[C@H]1C[C@@H](Nc2ncncc2C(=O)c2cc3c(s2)CCC[C@@]32NCCc3ccc(Cl)cc32)C[C@@H]1O` [Compound 5], under “numeric values”, the IC50 is above 1 µM.

In the case of `NS(=O)(=O)OC[C@H]1C[C@@H](Nc2ncncc2C(=O)c2cc3c(s2)CCCC32NCCc3ccc(F)cc32)C[C@@H]1O` (stereo partly drawn) [Compound 7], for the setting “class symbols”, the IC50 is 0.05 to 0.2 µM.

For the compound `NS(=O)(=O)OC[C@H]1C[C@@H](Nc2ncncc2C(=O)c2cc3c(s2)CCC[C@@]32NCCc3ccc(F)cc32)C[C@@H]1O` [Compound 8], the half-maximal inhibitory concentration (IC50) (numeric values) was above 1 µM.

In the case of `N#Cc1ccc2c(c1)C1(CCCc3sc(C(=O)c4cncnc4N[C@@H]4C[C@H](COS(N)(=O)=O)[C@@H](O)C4)cc31)NCC2` (stereo partly drawn) [Compound 10], for the setting “class symbols”, the IC50 is 0.05 to 0.2 µM.

Turning to `N#Cc1ccc2c(c1)[C@]1(CCCc3sc(C(=O)c4cncnc4N[C@@H]4C[C@H](COS(N)(=O)=O)[C@@H](O)C4)cc31)NCC2` [Compound 11], the IC50 (class symbols) is above 0.2 µM.

`N#Cc1ccc2c(c1)[C@@]1(CCCc3sc(C(=O)c4cncnc4N[C@@H]4C[C@H](COS(N)(=O)=O)[C@@H](O)C4)cc31)NCC2` [Compound 12]: the IC50 (class symbols) is at most 0.05 µM.

As for `NS(=O)(=O)OC[C@H]1C[C@@H](Nc2ncncc2C(=O)c2cc3c(s2)COCC32NCCc3ccccc32)C[C@@H]1O` (stereo partly drawn) [Compound 13], the IC50 (class symbols) is above 0.2 µM.

`NS(=O)(=O)OC[C@H]1C[C@@H](Nc2ncncc2C(=O)c2cc3c(s2)COC[C@@]32NCCc3ccccc32)C[C@@H]1O` [Compound 14]: for the setting “class symbols”, the IC50 is above 0.2 µM.

`NS(=O)(=O)OC[C@H]1C[C@@H](Nc2ncncc2C(=O)c2cc3c(s2)COC[C@]32NCCc3ccccc32)C[C@@H]1O` [Compound 15]: the IC50 (class symbols) lay within 0.05 to 0.2 µM.

For `NS(=O)(=O)OC[C@H]1C[C@@H](Nc2ncncc2C(=O)c2cc3c(s2)COCC32NCCc3ccc(F)cc32)C[C@@H]1O` (stereo partly drawn) [Compound 16], the IC50 (class symbols) was 0.05 to 0.2 µM.

Regarding `NS(=O)(=O)OC[C@H]1C[C@@H](Nc2ncncc2C(=O)c2cc3c(s2)COC[C@@]32NCCc3ccc(F)cc32)C[C@@H]1O` [Compound 17], the IC50 (numeric values) was above 1 µM.

For the compound `NS(=O)(=O)OC[C@H]1C[C@@H](Nc2ncncc2C(=O)c2cc3c(s2)COC[C@]32NCCc3ccc(F)cc32)C[C@@H]1O` [Compound 18], the IC50 (numeric values) worked out at 0.104 µM.

For the compound `NS(=O)(=O)OC[C@H]1C[C@@H](Nc2ncncc2C(=O)c2cc3c(s2)COCC32NCCc3ccc(Cl)cc32)C[C@@H]1O` (stereo partly drawn) [Compound 19], the IC50 (class symbols) was in the range of 0.05 to 0.2 µM.

Turning to `NS(=O)(=O)OC[C@H]1C[C@@H](Nc2ncncc2C(=O)c2cc3c(s2)COC[C@@]32NCCc3ccc(Cl)cc32)C[C@@H]1O` [Compound 20], the IC50 (numeric values) is above 1 µM.

For the compound `Cc1ccc2c(c1)C1(CCCc3sc(C(=O)c4cncnc4N[C@@H]4C[C@H](COS(N)(=O)=O)[C@@H](O)C4)cc31)NCC2` (stereo partly drawn) [Compound 22], the IC50 (class symbols) lay within 0.05 to 0.2 µM.

As for `NS(=O)(=O)OC[C@H]1C[C@@H](Nc2ncncc2C(=O)c2cc3c(s2)CCCC32NCCc3ccc(C4CC4)cc32)C[C@@H]1O` (stereo partly drawn) [Compound 23], the IC50 (class symbols) lay in the range of 0.05 to 0.2 µM.

As for `COc1ccc2c(c1)C1(CCCc3sc(C(=O)c4cncnc4N[C@@H]4C[C@H](COS(N)(=O)=O)[C@@H](O)C4)cc31)NCC2` (stereo partly drawn) [Compound 24], the IC50 (class symbols) is above 0.2 µM.

As to `NS(=O)(=O)OC[C@H]1C[C@@H](Nc2ncncc2C(=O)c2cc3c(s2)CCCC32NCCc3ccc(C(F)(F)F)cc32)C[C@@H]1O` (stereo partly drawn) [Compound 25], the IC50 (class symbols) was 0.05 to 0.2 µM.

`NS(=O)(=O)OC[C@H]1C[C@@H](Nc2ncncc2C(=O)c2cc3c(s2)CCCC32NCCc3cc(F)c(F)cc32)C[C@@H]1O` (stereo partly drawn) [Compound 26]: the IC50 (class symbols) lay within 0.05 to 0.2 µM.

Consider `NS(=O)(=O)OC[C@H]1C[C@@H](Nc2ncncc2C(=O)c2cc3c(s2)CCCC32NCCc3cc(F)c(Cl)cc32)C[C@@H]1O` (stereo partly drawn) [Compound 27], for which the IC50 (class symbols) is at most 0.05 µM.

As for `NS(=O)(=O)OC[C@H]1C[C@@H](Nc2ncncc2C(=O)c2cc3c(s2)CCCC32NCCc3cc(Cl)c(Cl)cc32)C[C@@H]1O` (stereo partly drawn) [Compound 28], the IC50 (class symbols) is 0.05 to 0.2 µM.

For `Cc1cc2c(cc1Cl)C1(CCCc3sc(C(=O)c4cncnc4N[C@@H]4C[C@H](COS(N)(=O)=O)[C@@H](O)C4)cc31)NCC2` (stereo partly drawn) [Compound 29], the IC50 (class symbols) fell in the range of 0.05 to 0.2 µM.

Regarding `N#Cc1cc2c(cc1Cl)C1(CCCc3sc(C(=O)c4cncnc4N[C@@H]4C[C@H](COS(N)(=O)=O)[C@@H](O)C4)cc31)NCC2` (stereo partly drawn) [Compound 30], the IC50 (class symbols) lay in the range of 0.05 to 0.2 µM.

As for `COc1cc2c(cc1Cl)C1(CCCc3sc(C(=O)c4cncnc4N[C@@H]4C[C@H](COS(N)(=O)=O)[C@@H](O)C4)cc31)NCC2` (stereo partly drawn) [Compound 31], the IC50 (class symbols) fell in the range of 0.05 to 0.2 µM.

Consider `NS(=O)(=O)OC[C@H]1C[C@@H](Nc2ncncc2C(=O)c2cc3c(s2)CCCC32NCCc3cc(F)c(Cl)c(F)c32)C[C@@H]1O` (stereo partly drawn) [Compound 32], for which the IC50 (class symbols) was 0.05 to 0.2 µM.

As to `NS(=O)(=O)OC[C@H]1C[C@@H](Nc2ncncc2C(=O)c2cc3c(s2)CCCC32NCCc3cc(Cl)c(F)cc32)C[C@@H]1O` (stereo partly drawn) [Compound 33], for the setting “class symbols”, the half-inhibitory concentration (IC50) lay within 0.05 to 0.2 µM.

As to `NS(=O)(=O)OC[C@H]1C[C@@H](Nc2ncncc2C(=O)c2cc3c(s2)CCCC32NCCc3ccncc32)C[C@@H]1O` (stereo partly drawn) [Compound 34], under “class symbols”, the IC50 was 0.05 to 0.2 µM.

Regarding `NS(=O)(=O)OC[C@H]1C[C@@H](Nc2ncncc2C(=O)c2cc3c(s2)CCCC32NCCc3cc(Cl)ncc32)C[C@@H]1O` (stereo partly drawn) [Compound 35], the IC50 (class symbols) was 0.05 to 0.2 µM.

Turning to `NS(=O)(=O)OC[C@H]1C[C@@H](Nc2ncncc2C(=O)c2cc3c(s2)C=CCC32NCCc3ccc(Cl)cc32)C[C@@H]1O` (stereo partly drawn) [Compound 36], for the setting “class symbols”, the IC50 is at most 0.05 µM.

For `NS(=O)(=O)OC[C@H]1C[C@@H](Nc2ncncc2C(=O)c2cc3c(s2)CC=CC32NCCc3ccc(Cl)cc32)C[C@@H]1O` (stereo partly drawn) [Compound 37], the IC50 (class symbols) is at most 0.05 µM.

With `NS(=O)(=O)OC[C@H]1C[C@@H](Nc2ncncc2C(=O)c2cc3c(s2)OCCC32NCCc3ccc(Cl)cc32)C[C@@H]1O` (stereo partly drawn) [Compound 38], for the setting “class symbols”, the IC50 was in the range of 0.05 to 0.2 µM.

Turning to `NS(=O)(=O)OC[C@H]1C[C@@H](Nc2ncncc2C(=O)c2cc3c(s2)CCCC32NCC3(CC3)c3ccc(Cl)cc32)C[C@@H]1O` (stereo partly drawn) [Compound 39], the IC50 (class symbols) lay in the range of 0.05 to 0.2 µM.

With `NS(=O)(=O)OC[C@H]1C[C@@H](Nc2ncncc2C(=O)c2cc3c(s2)CCCC32NC3(CC3)Cc3ccc(Cl)cc32)C[C@@H]1O` (stereo partly drawn) [Compound 40], under “class symbols”, the IC50 lay in the range of 0.05 to 0.2 µM.

For `NS(=O)(=O)OC[C@H]1C[C@@H](Nc2ncncc2C(=O)c2cc3c(s2)CCCC32NCC(=O)c3ccc(Cl)cc32)C[C@@H]1O` (stereo partly drawn) [Compound 41], the IC50 (class symbols) lay within 0.05 to 0.2 µM.

In the case of `NS(=O)(=O)OC[C@H]1C[C@@H](Nc2ncncc2C(=O)c2cc3c(s2)CCCC32OCCc3ccc(Cl)cc32)C[C@@H]1O` (stereo partly drawn) [Compound 42], where the note is “class symbols”, the IC50 is at most 0.05 µM.

Take `NS(=O)(=O)OC[C@H]1C[C@@H](Nc2ncncc2C(=O)c2cc3c(s2)CCC32NCCc3ccccc32)C[C@@H]1O` (stereo partly drawn) [Compound 43]: where the note is “class symbols”, the IC50 is above 0.2 µM.

`NS(=O)(=O)OC[C@H]1C[C@@H](Nc2ncncc2C(=O)c2cc3c(s2)CC[C@@]32NCCc3ccccc32)C[C@@H]1O` [Compound 44]: the IC50 (numeric values) was above 1 µM.

With `NS(=O)(=O)OC[C@H]1C[C@@H](Nc2ncncc2C(=O)c2cc3c(s2)CC[C@]32NCCc3ccccc32)C[C@@H]1O` [Compound 45], the IC50 (numeric values) amounted to 0.125 µM.

Turning to `NS(=O)(=O)OC[C@H]1C[C@@H](Nc2ncncc2C(=O)c2cc3c(s2)CCC32NCCc3ccc(Cl)cc32)C[C@@H]1O` (stereo partly drawn) [Compound 46], where the note is “class symbols”, the IC50 was 0.05 to 0.2 µM.

For the compound `NS(=O)(=O)OC[C@H]1C[C@@H](Nc2ncncc2C(=O)c2cc3c(s2)CC[C@@]32NCCc3ccc(Cl)cc32)C[C@@H]1O` [Compound 47], the IC50 (numeric values) is above 1 µM.

With `NS(=O)(=O)OC[C@H]1C[C@@H](Nc2ncncc2C(=O)c2cc3c(s2)CCC32NCCc3ccc(F)cc32)C[C@@H]1O` (stereo partly drawn) [Compound 49], the IC50 (class symbols) was 0.05 to 0.2 µM.

On to `NS(=O)(=O)OC[C@H]1C[C@@H](Nc2ncncc2C(=O)c2cc3c(s2)CC[C@@]32NCCc3ccc(F)cc32)C[C@@H]1O` [Compound 50], for which the IC50 (numeric values) is above 1 µM.

Consider `NS(=O)(=O)OC[C@H]1C[C@@H](Nc2ncncc2C(=O)c2cc3c(s2)CC[C@]32NCCc3ccc(F)cc32)C[C@@H]1O` [Compound 51], for which, where the note is “numeric values”, the IC50 came to 0.0507 µM.

For the compound `N#Cc1ccc2c(c1)C1(CCc3sc(C(=O)c4cncnc4N[C@@H]4C[C@H](COS(N)(=O)=O)[C@@H](O)C4)cc31)NCC2` (stereo partly drawn) [Compound 52], where the note is “class symbols”, the IC50 is 0.05 to 0.2 µM.
